Data reported in a melting point compilation (Tetko et al.; mined from patent text by program, amines drawn as free bases though some values may be those of a salt).

Compound | melting point [°C]
COC(=O)c1c(SCc2ccc(OC)cc2)nc(-c2ccccc2)n1Cc1cc2c(cc1Cl)OCO2 | 158
Fc1cccc(COc2ccc(Nc3ncnc4sc(C#Cc5nccs5)cc34)cc2Cl)c1 | 204
CCCNNC(=O)c1cnc(N(CC)Cc2cc(Br)ccc2OCc2ccccc2)s1 | 163
COc1ccc(CCN(C)CCc2ccc(NC(=O)c3cccc4c(=O)c5cccc(OC)c5[nH]c34)cc2)cc1OC | 179
C#CCOC(C(=O)Nc1ccccc1-c1ccc(O)c(OC)c1)c1ccc(Cl)cc1 (centres undefined) | 140 to 142
CCOC(=O)c1cccc(NC(=O)NCC(=O)N2[C@@H](C(=O)OCC)CC[C@H]2c2ccccc2)c1 (racemic) | 136
CC1=NN=C(c2ccc(NC(=O)CN)cc2)c2cc3c(cc2C1)OCO3 | 223 to 225
O=C(O)c1cc2c(s1)-c1cc(F)ccc1CC2 | 240 to 242
Cc1noc(=O)c2ccc(NC(=O)C(C)(O)CC3(c4cccc(C(F)(F)F)c4)CC3)cc12 (centres undefined) | 75 to 76
Oc1c(F)cc(Cn2cc[nH]c2=S)cc1F | 188
CN1OC(C=Cc2ccccc2)CC1(Cn1ccnc1)c1ccc2ccccc2c1 (centres undefined) | 166 to 169
Cc1ccc(O)c(NC(=O)c2cc(C)sc2Br)c1 | 173 to 175
CCCCCS(=O)(=O)NC(=O)OCc1cc(OC(C)C)nn1Cc1ccc(Cl)cc1Cl | 126 to 128
N#CCC1OC(n2cnc3c(NN4CCC(Sc5ccccc5)CC4)nc(Cl)nc32)C(O)C1O (centres undefined) | 159 to 161
COC(=O)c1cc(S(=O)(=O)Cl)cc(C(=O)OC)c1[N+](=O)[O-] | 124 to 125
Cc1cc(-c2c[nH]c(N)n2)ccn1 | 226 to 228
O=C(NCCSCc1ccccc1Cl)c1c(Cl)cccc1Cl | 110 to 112
CCc1c(CCNC(=O)C(F)(F)F)ccc(OC)c1OC | 80 to 81
CN1CCN(Cc2ccc3c(c2)Cc2c(-c4ccsc4)n[nH]c2-3)CC1 | 115 to 117
Nc1cccc(Cc2nnn[nH]2)c1 | 140
CCNC(=O)c1cccc(-c2ccc3ncn(CCc4ccc(OC)c(OC)c4)c3n2)c1 | 152 to 153

Compound | melting point [°C]
CC1(C)CS(=O)(=O)CC(C)(C)[NH+]1[O-] | 163
O=C1c2ccccc2C(=O)c2sc(-c3cccnc3)nc21 | 256
CC1(C)N=C(c2ccccc2F)c2cc([N+](=O)[O-])ccc2NC1=O | 241
Clc1nc2ccccc2cc1CBr | 125
COc1ccc(CNC(=O)c2cc3c(=O)n(CCS(=O)(=O)c4ccccc4)c(=O)n(C)c3s2)cc1 | 118 to 121
c1coc2cc3ccnc3cc2c1 | 97
COC(=O)c1cc2c3cc(Cl)ccc3n(C)c2s1 | 188 to 190
Cc1onc(CCc2ccccc2)c1C(N)=O | 135 to 136
CCOC(=O)C1=C(C)NC(C)=C(C(=O)OCC)C1c1cc(Cl)cc(Cl)c1 | 102 to 104
CCOC(=O)C1=C(C)NC(C)=C(C(=O)OCC)C1c1ccccc1F | 151 to 152
CCNC(=S)Nc1ccc(NNC(C)=O)cc1 | 191 to 193
C=Cc1ccc(CC(N)=O)nc1 | 120 to 121
OCc1ccc(-c2cn([C@H]3CN4CCC3CC4)nn2)cc1 | 200
CCCOc1ccc(-c2csc(-c3ccccc3)c2CC(=O)N=C(N)N)cc1 | 131 to 132
O=C(CCNC(=O)[C@@H](O)Cc1ccccc1)OCc1ccccc1 | 34 to 38
CCOC(=O)Cc1csc(NC(=O)C(N)Cc2ccc(F)cc2)n1 (centres undefined) | 124 to 127
COc1cc(OC)c(NC(=O)CC(C#N)c2ccccc2)c(OC)c1 (centres undefined) | 157 to 160
CC(=O)Nc1ccc2c(c1)NC(=O)C2CC(C)C (centres undefined) | 214 to 216
CN1C(=O)N(c2c(Cl)cccc2Cl)Cc2cnc(Nc3ccc(F)cc3)nc21 | 208 to 211
C1=Cc2cc3ccccc3cc2C1 | 160 to 163
c1ccc(-c2cnns2)cc1 | 46 to 48

Compound | melting point [°C]
CON1C(C)(C)CC(OC(=O)c2ccccc2C(=O)OC2CC(C)(C)N(OC)C(C)(C)C2)CC1(C)C | 124 to 126
Cn1c(Cl)cnc1C(OC(=O)OC(C)(C)C)c1cc(F)ccc1F (centres undefined) | 125 to 126
O=c1nc(Cl)cc(-c2ccccc2)n1-c1ccccc1 | 141 to 143
Nc1nc(N)c([N+](=O)[O-])c(OCc2ccccc2)n1 | 194 to 195
O=C(NCCCn1ccc2cc(NC(=O)c3nc4ccc(Cl)cc4n3Cc3ccccc3)ccc21)c1cccnc1 | 206 to 207
Nc1ncc2cc(-c3c(Cl)cccc3Br)c(N)nc2n1 | 264 to 280
CCCCOC(=O)c1ccc(NC(=NC(=O)OCC)SC)cc1 | 67 to 68
CCC12OC[C@@H](O1)[C@@H](O)C[C@H]2OC | 43 to 44
CCN1C(=O)C(=CC=C2C=C(c3ccccc3)C=C3N2c2ccccc2C3(C)C)SC1=S | 270 to 272
CCCn1cnc2c1c(=O)n(CCCCC(C)=O)c(=O)n2CC | 81 to 82
COc1ccc(-c2cc3cc(F)c(F)cc3[nH]2)cc1NC(=S)Nc1cccnc1 | 128 to 130
CC(=O)Nc1ncc(-c2ccc(=O)n(C(C)C)n2)c(-c2ccccc2)n1 | 209 to 210
N#CC1(N2CCC(O)CC2)CCSCC1 | 79 to 81
Cc1nc(-c2ccccc2)nc(-c2ccncc2)c1CO | 175 to 176
CC(C)n1nc(-c2c(-c3ccccc3)nc(N)nc2N(C)Cc2ccccc2)ccc1=O | 167 to 168
CCCOc1ccc2nc(NC(=O)OC)sc2c1 | 178 to 180
COc1cc(Cl)c(N2CCN(c3cccc(C(F)(F)F)c3)CC2)c(Cl)c1 | 87 to 89
CCN(c1ccc(C)c2cc(-c3ncc(CO)s3)[nH]c12)S(=O)(=O)c1cccs1 | 166 to 167
O=c1[nH]c2ccccc2c(-c2ccccc2)c1-c1csc(-c2ccncc2)n1 | > 250
CNc1nccc(-c2c(-c3ccc(F)cc3)ncn2C2CC(C)(C)NC(C)(C)C2)n1 | 221 to 222

Continued, values first:

melting point [°C] | Compound
198 to 201 | CN1C(=O)C2(COc3cc4c(cc32)OCCO4)c2c(Oc3ccc(C(F)(F)F)cc3)cccc21 (centres undefined)
129 to 131 | CCCCOCCOc1ccc(-c2ccc3c(c2)C=C(C(=O)O)CCN3c2ccccc2)cc1
135 to 137 | COC(=O)c1c(OCc2ccccc2)ccc2c1CCCC2=NO
183 to 185 | O=CNNc1ccc([N+](=O)[O-])cc1
88 | CC(=O)c1c(F)cccc1N1CCN(C(=O)OC(C)(C)C)CC1
183 to 185 | O=C(O)C1CCC(=O)N1c1cccc(O)c1 (centres undefined)
242 to 244 | O=C(Cn1c(-c2ccc(Br)cc2)nc2cccnc21)Nc1ccccc1
53 to 54 | COC(=O)c1cc(OCc2ccccc2)nn1-c1ccccc1
194 to 195 | O=C(Nc1ccc(OC(F)(F)F)cc1)c1c(O)c2ccccc2oc1=O
224 | Nc1ccc(S(=O)(=O)Nc2ccc(Cl)cc2Cl)cc1C(=O)O
134 to 136 | Cc1cccc2c(-c3ccc(F)cc3)onc12
100 to 101 | COc1ccc(C=C(c2ccc(OC)cc2)c2ccc(OC)cc2)cc1
193 to 194 | COc1ccc(S(=O)(=O)n2ccc3ccnc(-c4ccncc4)c32)cc1
72 to 76 | CCO[C@@H]1[C@@H](OC)[C@H](C)O[C@@H](OC(=O)N(C(=O)CCC(=O)OC)c2ccc(-c3ncn(-c4ccc(OC(F)(F)C(F)(F)F)cc4)n3)cc2)[C@@H]1OC
> 300 | O=C(O)c1ccc(C(=O)Nc2ccc(C(=O)N3CCCc4ccccc43)cc2)cc1
180 | Cc1cc(COc2ccc(S(=O)(=O)NC[C@@H](C(=O)NO)N3CCN(Cc4ccc(F)cc4)CC3)cc2)c2ccccc2n1
116 to 119 | Cc1cn(C(C)(C)C(=O)Nc2ccccc2)nc1-c1ccccc1
240 | CCn1ncc2c(NCC3CCCCC3)c3cc(C(=O)O)ccc3nc21
234 to 236 | CS(=O)(=O)c1ccc(-c2cnn(-c3ccccc3C=O)c(=O)c2-c2ccc(F)cc2)cc1

melting point [°C] | Compound
220 | NC(=O)N1C(=O)C(C(=O)c2ccccc2)c2nc(Cl)ccc21 (centres undefined)
69 to 70 | Nc1cc(F)ccc1C(=O)Oc1ccccc1
230 to 232 | CC(C)(C)OC(=O)N1CCC2(CC1)Cn1cc([N+](=O)[O-])nc1O2
253 | N#Cc1c(N2CCN(C(=O)c3ccco3)CC2)c2cc(Cl)ccc2n(Cc2ccc(F)cc2)c1=O
274 to 275 | O=C(c1c(F)cccc1F)N1CS(=O)(=O)CN(c2ccc(Cl)cc2)C1=O
173 to 175 | O=C(c1ccc(N2CCOCC2)cc1)c1ccc([N+](=O)[O-])cc1
147 | CCCOc1ccc(S(=O)(=O)NC[C@@H](C(=O)NO)N2CCCCC2)cc1
230 to 232 | COC(=O)c1cc(I)ccc1Nc1ccccc1C(=O)O
195 to 198 | CCCN1N=C2C(=Cc3ccc(OC)cc3)CS(=O)(=O)CC2C1c1ccc(OC)cc1 (centres undefined)
228 | O=C(CC1(c2ccccc2)C(=O)Oc2ccc(Cl)cc21)N1CCN(c2ccc(C(F)(F)F)cn2)CC1 (centres undefined)
182 to 183 | O=C(O)[C@@H]1CC[C@@H](Oc2ccccc2)c2c(-c3ccc(Cl)cc3)noc2C1 (relative stereo)
228 to 235 | CCN1C(=O)CCCc2ccc(Nc3ncc(Cl)c(Nc4c(F)cccc4C(=O)NC)n3)cc21
171 to 172 | O=C(O)c1ccc(-n2ncc3ccccc32)cc1
210 | O=S(=O)(NC(=NO)Nc1ccc(Cl)cc1)c1ccc(-c2ccccn2)s1
204 to 206 | C[C@H]1CCCN(C(=O)[C@@H]2Cc3cc(-c4ccccc4)ccc3N2c2ccc(=O)n(C)n2)C1
186 to 187 | Nc1cc(-c2c(-c3ccc(F)cc3)ncn2CCCN2CCOCC2)ccn1
192 to 195 | COc1ccc(S(=O)(=O)C2(C(=O)O)CCN(Cc3ccc(Cl)c(Cl)c3)CC2)cc1
82 | OC1Cc2ccccc2C1N1CCCCC1 (centres undefined)
